Assay results reported in PubChem BioAssay AID1918991 (Molecular Pharmacology Branch, DTP, NCI, 2023).
pIC50: −log10 of the molar value.

System: 186277-243-T-J2-PDC complex spheroid growth
Assay: Anticancer human tumor 186277-243-T-J2-PDC patient-derived colon adenocarcinoma cell line growth inhibition [AhR]
Settings: for pIC50: curve of first compound; for viability, T/C: stronger effect = lower value
Method in brief: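 Agents were dosed in half-log steps down from roughly clinical Cmax, or from 10 microM where Cmax was unknown, alone and with AhR antagonists. Read-out: percent test/control growth of tumor spheroids containing HUVEC and MSC stromal cells.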

[1] = second compound 0.1 µM, first compound 0.0316 µM
[2] = second compound 0.1 µM, first compound 0.1 µM
[3] = second compound 0.316 µM, first compound 0.0316 µM
[4] = second compound 0.316 µM, first compound 0.1 µM
[5] = second compound 1 µM, first compound 0.0316 µM
[6] = second compound 1 µM, first compound 0.1 µM
[7] = second compound 3.16 µM, first compound 0.0316 µM
[8] = second compound 3.16 µM, first compound 0.1 µM
[9] = second compound 10 µM, first compound 0.0316 µM
[10] = second compound 10 µM, first compound 0.1 µM
[11] = second compound 0.1 µM, first compound 0.00949 µM
[12] = second compound 0.1 µM, first compound 0.03 µM
[13] = second compound 0.1 µM, first compound 0.0949 µM
[14] = second compound 0.1 µM, first compound 0.3 µM
[15] = second compound 0.316 µM, first compound 0.00949 µM
[16] = second compound 0.316 µM, first compound 0.03 µM
[17] = second compound 0.316 µM, first compound 0.0949 µM
[18] = second compound 0.316 µM, first compound 0.3 µM
[19] = second compound 1 µM, first compound 0.00949 µM
[20] = second compound 1 µM, first compound 0.03 µM
[21] = second compound 1 µM, first compound 0.0949 µM
[22] = second compound 1 µM, first compound 0.3 µM
[23] = second compound 3.16 µM, first compound 0.00949 µM
[24] = second compound 3.16 µM, first compound 0.03 µM
[25] = second compound 3.16 µM, first compound 0.0949 µM
[26] = second compound 3.16 µM, first compound 0.3 µM
[27] = second compound 10 µM, first compound 0.00949 µM
[28] = second compound 10 µM, first compound 0.03 µM
[29] = second compound 10 µM, first compound 0.0949 µM
[30] = second compound 10 µM, first compound 0.3 µM
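Note: spheroids exposed to compounds for seven days before the viability read.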
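Throughout, for viability, T/C: luminescent signal used as a stand-in for viable cell amount; 100% = DMSO vehicle control wells.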

`CC1(C)CCC(CN2CCN(c3ccc(C(=O)NS(=O)(=O)c4ccc(NCC5CCOCC5)c([N+](=O)[O-])c4)c(Oc4cnc5[nH]ccc5c4)c3)CC2)=C(c2ccc(Cl)cc2)C1` + Cc1cncc(-c2nc(NCCc3c[nH]c4ccccc34)c3ncn(C(C)C)c3n2)c1 gave a pIC50 (second compound 0.1 µM) of less than 5.00, a pIC50 (second compound 0.316 µM) of less than 5.00 and a pIC50 (second compound 1 µM) of less than 5.00. It also gave a pIC50 (second compound 3.16 µM) of less than 5.00, a pIC50 (second compound 10 µM) of less than 5.00 and a viability, T/C [1] of 88.2%. The viability, T/C [2] was 97.7%, the viability, T/C (second compound 0.1 µM, first compound 0.316 µM) was 99.4% and the viability, T/C (second compound 0.1 µM, first compound 1 µM) was 91.4%. For the same molecule, the viability, T/C (second compound 0.1 µM, first compound 3.16 µM) was 94.3%, the viability, T/C (second compound 0.1 µM, first compound 10 µM) was 94.8% and the viability, T/C [3] was 109%. It also gave a viability, T/C [4] of 87.4%, a viability, T/C (second compound 0.316 µM, first compound 0.316 µM) of 102% and a viability, T/C (second compound 0.316 µM, first compound 1 µM) of 83.5%. For the same molecule, the viability, T/C (second compound 0.316 µM, first compound 3.16 µM) was 100%, the viability, T/C (second compound 0.316 µM, first compound 10 µM) was 106% and the viability, T/C [5] was 102%. The viability, T/C [6] was 85.5%, the viability, T/C (second compound 1 µM, first compound 0.316 µM) was 97.4% and the viability, T/C (second compound 1 µM, first compound 1 µM) was 97.9%. The viability, T/C (second compound 1 µM, first compound 3.16 µM) was 103%, the viability, T/C (second compound 1 µM, first compound 10 µM) was 103% and the viability, T/C [7] was 110%. The viability, T/C [8] was 108%, the viability, T/C (second compound 3.16 µM, first compound 0.316 µM) was 105% and the viability, T/C (second compound 3.16 µM, first compound 1 µM) was 103%. It also gave a viability, T/C (second compound 3.16 µM, first compound 3.16 µM) of 109%, a viability, T/C (second compound 3.16 µM, first compound 10 µM) of 105% and a viability, T/C [9] of 77%. The viability, T/C [10] was 81.6%, the viability, T/C (second compound 10 µM, first compound 0.316 µM) was 82.8% and the viability, T/C (second compound 10 µM, first compound 1 µM) was 95.5%. The viability, T/C (second compound 10 µM, first compound 3.16 µM) was 88.4% and the viability, T/C (second compound 10 µM, first compound 10 µM) was 88.5%.
Molecule `CCN(c1cc(-c2ccc(CN3CCOCC3)cc2)cc(C(=O)NCc2c(C)cc(C)[nH]c2=O)c1C)C1CCOCC1` + Cc1cncc(-c2nc(NCCc3c[nH]c4ccccc34)c3ncn(C(C)C)c3n2)c1 has a pIC50 (second compound 0.1 µM) of less than 5.52, a pIC50 (second compound 0.316 µM) of less than 5.52 and a pIC50 (second compound 1 µM) of less than 5.52. It also gave a pIC50 (second compound 3.16 µM) of less than 5.52, a pIC50 (second compound 10 µM) of 6.19 and a viability, T/C [11] of 106%. It also gave a viability, T/C [12] of 89.7%, a viability, T/C [13] of 108% and a viability, T/C [14] of 102%. It also gave a viability, T/C (second compound 0.1 µM, first compound 0.949 µM) of 94%, a viability, T/C (second compound 0.1 µM, first compound 3 µM) of 98.5% and a viability, T/C [15] of 91.8%. The viability, T/C [16] was 110%, the viability, T/C [17] was 102% and the viability, T/C [18] was 101%. The viability, T/C (second compound 0.316 µM, first compound 0.949 µM) was 106%, the viability, T/C (second compound 0.316 µM, first compound 3 µM) was 103% and the viability, T/C [19] was 98%. The viability, T/C [20] was 115%, the viability, T/C [21] was 115% and the viability, T/C [22] was 102%. It also gave a viability, T/C (second compound 1 µM, first compound 0.949 µM) of 111%, a viability, T/C (second compound 1 µM, first compound 3 µM) of 107% and a viability, T/C [23] of 102%. It also gave a viability, T/C [24] of 103%, a viability, T/C [25] of 103% and a viability, T/C [26] of 105%. It also gave a viability, T/C (second compound 3.16 µM, first compound 0.949 µM) of 90.7%, a viability, T/C (second compound 3.16 µM, first compound 3 µM) of 119% and a viability, T/C [27] of 84.8%. It also gave a viability, T/C [28] of 98.5%, a viability, T/C [29] of 82.9% and a viability, T/C [30] of 72.1%. The viability, T/C (second compound 10 µM, first compound 0.949 µM) was 39.6% and the viability, T/C (second compound 10 µM, first compound 3 µM) was 9.95%.
`Cn1ncnc1C1c2n[nH]c(=O)c3cc(F)cc(c23)NC1c1ccc(F)cc1` (stereo not given) + Cc1cncc(-c2nc(NCCc3c[nH]c4ccccc34)c3ncn(C(C)C)c3n2)c1 was tested, and the pIC50 (second compound 0.1 µM) was less than 7.00, the pIC50 (second compound 0.316 µM) was less than 7.00 and the pIC50 (second compound 1 µM) was less than 7.00. The pIC50 (second compound 3.16 µM) was less than 7.00, the pIC50 (second compound 10 µM) was less than 7.00 and the viability, T/C (second compound 0.1 µM, first compound 0.000316 µM) was 89%. The viability, T/C (second compound 0.1 µM, first compound 0.001 µM) was 83.9%, the viability, T/C (second compound 0.1 µM, first compound 0.00316 µM) was 100% and the viability, T/C (second compound 0.1 µM, first compound 0.01 µM) was 107%. For the same molecule, the viability, T/C [1] was 115%, the viability, T/C [2] was 123% and the viability, T/C (second compound 0.316 µM, first compound 0.000316 µM) was 109%. It also gave a viability, T/C (second compound 0.316 µM, first compound 0.001 µM) of 103%, a viability, T/C (second compound 0.316 µM, first compound 0.00316 µM) of 95% and a viability, T/C (second compound 0.316 µM, first compound 0.01 µM) of 110%. It also gave a viability, T/C [3] of 121%, a viability, T/C [4] of 135% and a viability, T/C (second compound 1 µM, first compound 0.000316 µM) of 92.5%. The viability, T/C (second compound 1 µM, first compound 0.001 µM) was 97.1%, the viability, T/C (second compound 1 µM, first compound 0.00316 µM) was 102% and the viability, T/C (second compound 1 µM, first compound 0.01 µM) was 107%. The viability, T/C [5] was 130%, the viability, T/C [6] was 139% and the viability, T/C (second compound 3.16 µM, first compound 0.000316 µM) was 102%. For the same molecule, the viability, T/C (second compound 3.16 µM, first compound 0.001 µM) was 95.3%, the viability, T/C (second compound 3.16 µM, first compound 0.00316 µM) was 99.3% and the viability, T/C (second compound 3.16 µM, first compound 0.01 µM) was 112%. The viability, T/C [7] was 127%, the viability, T/C [8] was 128% and the viability, T/C (second compound 10 µM, first compound 0.000316 µM) was 77.4%. For the same molecule, the viability, T/C (second compound 10 µM, first compound 0.001 µM) was 90.7%, the viability, T/C (second compound 10 µM, first compound 0.00316 µM) was 83.7% and the viability, T/C (second compound 10 µM, first compound 0.01 µM) was 66.9%. For the same molecule, the viability, T/C [9] was 69.6% and the viability, T/C [10] was 68%.
In the case of `Nc1ncn(C2CC(O)C(CO)S2)c(=O)n1` (stereo not given) + Cc1cncc(-c2nc(NCCc3c[nH]c4ccccc34)c3ncn(C(C)C)c3n2)c1, the pIC50 (second compound 0.1 µM) was less than 6.52, the pIC50 (second compound 0.316 µM) was less than 6.52 and the pIC50 (second compound 1 µM) was less than 6.52. It also gave a pIC50 (second compound 3.16 µM) of less than 6.52, a pIC50 (second compound 10 µM) of less than 6.52 and a viability, T/C (second compound 0.1 µM, first compound 0.000949 µM) of 102%. It also gave a viability, T/C (second compound 0.1 µM, first compound 0.003 µM) of 91.9%, a viability, T/C [11] of 95.1% and a viability, T/C [12] of 129%. It also gave a viability, T/C [13] of 148%, a viability, T/C [14] of 104% and a viability, T/C (second compound 0.316 µM, first compound 0.000949 µM) of 89.5%. For the same molecule, the viability, T/C (second compound 0.316 µM, first compound 0.003 µM) was 89.4%, the viability, T/C [15] was 104% and the viability, T/C [16] was 109%. The viability, T/C [17] was 140%, the viability, T/C [18] was 105% and the viability, T/C (second compound 1 µM, first compound 0.000949 µM) was 98.2%. For the same molecule, the viability, T/C (second compound 1 µM, first compound 0.003 µM) was 107%, the viability, T/C [19] was 107% and the viability, T/C [20] was 140%. The viability, T/C [21] was 140%, the viability, T/C [22] was 115% and the viability, T/C (second compound 3.16 µM, first compound 0.000949 µM) was 92.2%. It also gave a viability, T/C (second compound 3.16 µM, first compound 0.003 µM) of 89.9%, a viability, T/C [23] of 90% and a viability, T/C [24] of 106%. For the same molecule, the viability, T/C [25] was 121%, the viability, T/C [26] was 98.4% and the viability, T/C (second compound 10 µM, first compound 0.000949 µM) was 79.5%. It also gave a viability, T/C (second compound 10 µM, first compound 0.003 µM) of 80.2%, a viability, T/C [27] of 71.8% and a viability, T/C [28] of 76.9%. The viability, T/C [29] was 70.9% and the viability, T/C [30] was 63.3%.
